Laboratory results reported in PubChem BioAssay AID248 (DTP/NCI, 2004).
“And” between values parts separate entries of the source, which are not always exact repeats. Equal entries are not always repeated. Inconclusive results and toxic doses are left out. Cut-off read from the data, not from the text of the source: active = T/C of 150% or more; inactive = T/C below 125%.

System: L1210 leukemia ip in BDF1 mice, survival T/C
Experiment: NCI In Vivo Anticancer Drug Screen. Data for tumor model L1210 Leukemia (intraperitoneal) in B6D2F1 (BDF1) mice
Conditions: endpoint: mean survival time, higher = longer survival
Summary of the method: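 Each compound was tested against a transplantable tumor grown in mice. The endpoint was survival, with treated animals benchmarked against vehicle controls as a simple ratio.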

[1] = dose: 100.0 mg/kg/injection, schedule: Q01DX009 (ip), vehicle: saline
[2] = dose: 200.0 mg/kg/injection, schedule: Q01DX009 (ip), vehicle: saline
[3] = dose: 100.0 mg/kg/injection, schedule: Q01DX001 (ip), vehicle: saline
[4] = dose: 100.0 mg/kg/injection, schedule: Q01DX009 (ip), vehicle: saline with Tween-80
[5] = dose: 200.0 mg/kg/injection, schedule: Q01DX001 (ip), vehicle: saline
[6] = dose: 200.0 mg/kg/injection, schedule: Q01DX009 (ip), vehicle: saline with Tween-80
[7] = dose: 400.0 mg/kg/injection, schedule: Q01DX001 (ip), vehicle: saline
[8] = dose: 25.0 mg/kg/injection, schedule: Q04DX003 (ip), vehicle: saline
[9] = dose: 50.0 mg/kg/injection, schedule: Q04DX003 (ip), vehicle: saline
[10] = dose: 100.0 mg/kg/injection, schedule: Q04DX003 (ip), vehicle: saline
[11] = dose: 200.0 mg/kg/injection, schedule: Q04DX003 (ip), vehicle: saline
[12] = dose: 400.0 mg/kg/injection, schedule: Q04DX003 (ip), vehicle: saline
[13] = dose: 25.0 mg/kg/injection, schedule: Q01DX009 (ip), vehicle: saline with Tween-80
[14] = dose: 50.0 mg/kg/injection, schedule: Q01DX009 (ip), vehicle: saline with Tween-80
[15] = dose: 100.0 mg/kg/injection, schedule: Q04DX003 (ip), vehicle: saline with Tween-80
[16] = dose: 400.0 mg/kg/injection, schedule: Q01DX009 (ip), vehicle: saline with Tween-80
[17] = dose: 400.0 mg/kg/injection, schedule: Q04DX002 (ip), vehicle: saline with Tween-80
[18] = dose: 100.0 mg/kg/injection, schedule: Q01DX009 (ip), vehicle: Klucel (hydroxypropylcellulose) (HPC)
[19] = dose: 200.0 mg/kg/injection, schedule: Q01DX009 (ip), vehicle: Klucel (hydroxypropylcellulose) (HPC)
[20] = dose: 200.0 mg/kg/injection, schedule: Q04DX003 (ip), vehicle: saline with Tween-80
[21] = dose: 400.0 mg/kg/injection, schedule: Q01DX009 (ip), vehicle: Klucel (hydroxypropylcellulose) (HPC)
[22] = dose: 400.0 mg/kg/injection, schedule: Q04DX003 (ip), vehicle: saline with Tween-80

Measured: T/C

CC(C)Cn1cnc2c(SCc3ccc(Cl)cc3Cl)nc(N)nc21
inactive: [1] 100 % of control | dose: 100.0 mg/kg/injection, schedule: Q04DX003 (ip), vehicle: acetone 92 % of control | [2] 102 % of control | dose: 200.0 mg/kg/injection, schedule: Q04DX003 (ip), vehicle: acetone 91 % of control | dose: 400.0 mg/kg/injection, schedule: Q01DX009 (ip), vehicle: saline 97 % of control | dose: 400.0 mg/kg/injection, schedule: Q04DX003 (ip), vehicle: acetone 89 % of control

CNS(=O)(=O)c1ccc(Cl)cc1
inactive: [3] 95 % of control | [4] 118 % of control | [1] 98 % of control | [5] 101 % of control | [6] 94 % of control | [7] 96 % of control

COc1ccc(C(OC(=O)c2ccc([N+](=O)[O-])cc2)c2ccccc2)cc1 (configuration not stated)
inactive: dose: 100.0 mg/kg/injection, schedule: Q01DX001 (ip), vehicle: carboxymethylcellulose (CMC) 88 % of control | dose: 200.0 mg/kg/injection, schedule: Q01DX001 (ip), vehicle: carboxymethylcellulose (CMC) 91 % of control | dose: 400.0 mg/kg/injection, schedule: Q01DX001 (ip), vehicle: carboxymethylcellulose (CMC) 93 % of control

C/C(=N\[N+](C)(C)C)c1ccc(C)cc1
inactive: dose: 12.5 mg/kg/injection, schedule: Q01DX001 (ip), vehicle: saline 112 % of control | dose: 25.0 mg/kg/injection, schedule: Q01DX001 (ip), vehicle: saline 104 % of control | [8] 107 % of control | dose: 50.0 mg/kg/injection, schedule: Q01DX001 (ip), vehicle: saline 108 % of control | [9] 100 % of control | [3] 101 % of control | [10] 105 % of control

CCOCCOCCOC(C)Oc1cc(OC)ccc1OC (configuration not stated)
inactive: dose: 100.0 mg/kg/injection, schedule: Q04DX002 (ip), vehicle: saline 107 % of control | dose: 200.0 mg/kg/injection, schedule: Q04DX002 (ip), vehicle: saline 93 % of control | dose: 400.0 mg/kg/injection, schedule: Q04DX002 (ip), vehicle: saline 101 % of control

COC(=O)C1OC1c1cc(OC)ccc1OC (configuration not stated)
inactive: dose: 100.0 mg/kg/injection, schedule: Q01DX001 (ip), vehicle: saline with Tween-80 102 % of control | [10] 102 % of control | dose: 200.0 mg/kg/injection, schedule: Q01DX001 (ip), vehicle: saline with Tween-80 103 % of control | [11] 100 % of control | dose: 400.0 mg/kg/injection, schedule: Q01DX001 (ip), vehicle: saline with Tween-80 89 % of control | [12] 97 % of control

CCn1cnc2c(C(F)(F)F)nc(N)nc21
inactive: dose: 12.5 mg/kg/injection, schedule: Q01DX001 (ip), vehicle: acetone 94 % of control | dose: 12.5 mg/kg/injection, schedule: Q01DX009 (ip), vehicle: saline with Tween-80 96 % of control | dose: 12.5 mg/kg/injection, schedule: Q04DX003 (ip), vehicle: saline 103 % of control | dose: 25.0 mg/kg/injection, schedule: Q01DX001 (ip), vehicle: acetone 94 % of control | [13] 101 % of control | [8] 87 % of control | dose: 50.0 mg/kg/injection, schedule: Q01DX001 (ip), vehicle: acetone 101 % of control | [14] 95 % of control | [9] 97 % of control

CSc1ncnc2[nH]ncc12
inactive: [13] 108 % of control | dose: 25.0 mg/kg/injection, schedule: Q04DX003 (ip), vehicle: saline with Tween-80 105 % of control | [14] 102 % of control | dose: 50.0 mg/kg/injection, schedule: Q04DX003 (ip), vehicle: saline with Tween-80 103 % of control | [15] 96 % of control and 106 % of control

CCOC(=O)C(C)(C(=O)OCC)c1ccccc1
inactive: [4] 97 % of control | [10] 97 % of control | [6] 95 % of control | [11] 97 % of control | [16] 95 % of control | [12] 98 % of control

NNc1c(F)c(F)c(Br)c(F)c1F
inactive: dose: 25.6 mg/kg/injection, schedule: Q04DX002 (ip), vehicle: saline with Tween-80 106 % of control | dose: 64.0 mg/kg/injection, schedule: Q04DX002 (ip), vehicle: saline with Tween-80 95 % of control | dose: 160.0 mg/kg/injection, schedule: Q04DX002 (ip), vehicle: saline with Tween-80 106 % of control | [17] 95 % of control

CNC(=O)Oc1cccc(N)c1
inactive: dose: 75.0 mg/kg/injection, schedule: Q01DX001 (ip), vehicle: saline 109 % of control | dose: 150.0 mg/kg/injection, schedule: Q01DX001 (ip), vehicle: saline 114 % of control

O=C(OCCC/C(=C\c1cc2ccccc2c2ccccc12)[N+](=O)[O-])c1ccccc1
inactive: dose: 100.0 mg/kg/injection, schedule: Q01DX001 (ip), vehicle: other 87 % of control | dose: 200.0 mg/kg/injection, schedule: Q01DX001 (ip), vehicle: other 92 % of control | dose: 400.0 mg/kg/injection, schedule: Q01DX001 (ip), vehicle: other 91 % of control

Cc1ccc(NC(=S)NNC(=S)NNc2ccccc2)cc1C
inactive: [18] 90 % of control | [15] 89 % of control | [19] 102 % of control | [20] 93 % of control | [21] 103 % of control | [22] 91 % of control

ClCc1c2ccccc2cc2ccccc12
inactive: dose: 6.25 mg/kg/injection, schedule: Q04DX002 (ip), vehicle: saline with Tween-80 101 % of control | dose: 12.5 mg/kg/injection, schedule: Q04DX002 (ip), vehicle: saline with Tween-80 101 % of control

CC(C)Oc1ccc(Nc2ccccc2)cc1
inactive: dose: 50.0 mg/kg/injection, schedule: Q01DX009 (ip), vehicle: Klucel (hydroxypropylcellulose) (HPC) 100 % of control | [3] 96 % of control | [18] 99 % of control | [5] 107 % of control | [19] 100 % of control | [7] 88 % of control

COCCN1CCC(CN2c3ccccc3Sc3ccccc32)C1 (configuration not stated)
inactive: [10] 111 % of control

CCOC(=O)C1=C(C)NC(C)=C(C(=O)OCC)C1c1ccnc2ccccc12
inactive: dose: 100.0 mg/kg/injection, schedule: Q01DX001 (ip), vehicle: steriod suspending solution 93 % of control | dose: 200.0 mg/kg/injection, schedule: Q01DX001 (ip), vehicle: steriod suspending solution 94 % of control | dose: 400.0 mg/kg/injection, schedule: Q01DX001 (ip), vehicle: steriod suspending solution 89 % of control

CCOC(=O)C1=NC=NC1=[N+]=[N-]
inactive: dose: 5.0 mg/kg/injection, schedule: Q01DX001 (ip), vehicle: saline 92 % of control | dose: 10.0 mg/kg/injection, schedule: Q01DX001 (ip), vehicle: saline 94 % of control | dose: 20.0 mg/kg/injection, schedule: Q01DX001 (ip), vehicle: saline 100 % of control

O=C(O)CCC(=O)c1ccccc1
inactive: dose: 50.0 mg/kg/injection, schedule: Q01DX009 (ip), vehicle: saline 97 % of control | [18] 100 % of control | [1] 97 % of control | dose: 100.0 mg/kg/injection, schedule: Q04DX002 (ip), vehicle: Klucel (hydroxypropylcellulose) (HPC) 97 % of control | dose: 100.0 mg/kg/injection, schedule: Q04DX002 (ip), vehicle: saline with Tween-80 108 % of control | [19] 96 % of control | [2] 105 % of control | dose: 200.0 mg/kg/injection, schedule: Q04DX002 (ip), vehicle: Klucel (hydroxypropylcellulose) (HPC) 91 % of control | dose: 200.0 mg/kg/injection, schedule: Q04DX002 (ip), vehicle: saline with Tween-80 105 % of control | [21] 107 % of control | dose: 400.0 mg/kg/injection, schedule: Q04DX002 (ip), vehicle: Klucel (hydroxypropylcellulose) (HPC) 87 % of control | [17] 105 % of control

O=c1cc(-c2ccccc2)ss1
inactive: [18] 100 % of control | [4] 101 % of control | [15] 102 % of control | [19] 102 % of control | [6] 97 % of control | [20] 102 % of control | [21] 105 % of control | [16] 96 % of control | [22] 103 % of control
